The record followed here is ChEMBL document CHEMBL1909046, “DrugMatrix in vitro pharmacology data”.

Molecules are shown by their SMILES.

Adenosine receptor A2a, sequence (P29274 whole entry): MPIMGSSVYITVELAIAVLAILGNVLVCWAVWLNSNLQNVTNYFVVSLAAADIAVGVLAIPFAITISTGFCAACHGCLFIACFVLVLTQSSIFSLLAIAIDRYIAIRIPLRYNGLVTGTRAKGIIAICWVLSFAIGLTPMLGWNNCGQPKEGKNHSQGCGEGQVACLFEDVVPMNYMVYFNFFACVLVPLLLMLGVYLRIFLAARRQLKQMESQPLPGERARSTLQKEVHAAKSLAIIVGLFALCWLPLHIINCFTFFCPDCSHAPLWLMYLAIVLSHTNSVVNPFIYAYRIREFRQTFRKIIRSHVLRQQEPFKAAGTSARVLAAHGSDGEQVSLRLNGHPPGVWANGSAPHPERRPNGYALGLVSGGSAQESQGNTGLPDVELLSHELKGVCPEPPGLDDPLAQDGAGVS

Test system in one assay: not listed separately
In words: DRUGMATRIX: Interleukin IL-1 radioligand binding (ligand: [125I] interleukin 1beta). It counts as cell membranes, Membrane. The settings on record: nih3t3; Not Active = under 50% inhibition at 10 µM.
As to `CC(=O)CCCCn1c(=O)c2c(ncn2C)n(C)c1=O` [PENTOXIFYLLINE], the IC50 entry is listed as “Not Active” and the Ki result is reported as “Not Active”.
Regarding `O=C1CN=C(c2ccccc2)c2cc([N+](=O)[O-])ccc2N1` [NITRAZEPAM], the IC50 result is listed as “Not Active” and the Ki result is reported as “Not Active”.
Turning to `CCC1(c2ccccc2)C(=O)NCNC1=O` [PRIMIDONE], the IC50 result is reported as “Not Active” and the Ki entry is listed as “Not Active”.

For the next assay, the target named is Mitogen-activated protein kinase 3 (Homo sapiens, UniProt P27361). Briefly: DRUGMATRIX: Protein Serine/Threonine Kinase, ERK1 enzyme inhibition (substrate: Myelin Basic Protein). More on the design: species or system Escherichia coli. The settings on record: Not Active = under 50% inhibition at 10 µM.
Mitogen-activated protein kinase 3, sequence (P27361 whole entry): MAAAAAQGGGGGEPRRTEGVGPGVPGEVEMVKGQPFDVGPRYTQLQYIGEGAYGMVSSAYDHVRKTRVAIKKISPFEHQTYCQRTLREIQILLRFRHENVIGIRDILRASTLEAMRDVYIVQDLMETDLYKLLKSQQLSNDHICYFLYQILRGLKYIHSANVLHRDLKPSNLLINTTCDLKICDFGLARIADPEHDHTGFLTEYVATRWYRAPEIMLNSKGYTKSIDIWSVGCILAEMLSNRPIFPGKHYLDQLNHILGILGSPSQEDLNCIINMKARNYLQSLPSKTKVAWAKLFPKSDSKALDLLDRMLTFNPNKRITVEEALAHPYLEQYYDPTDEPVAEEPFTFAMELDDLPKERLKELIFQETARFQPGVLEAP
In the case of `CC(=O)CCCCn1c(=O)c2c(ncn2C)n(C)c1=O` [PENTOXIFYLLINE], the IC50 result is “Not Active”.
Still for that read-out and setting: under `O=C1CN=C(c2ccccc2)c2cc([N+](=O)[O-])ccc2N1` [NITRAZEPAM] stands “Not Active”; under `CCC1(c2ccccc2)C(=O)NCNC1=O` [PRIMIDONE], “Not Active”.

The target in another assay is Substance-P receptor (Homo sapiens, UniProt P25103). Also: in other assays of this panel Not Active means under 50% inhibition at 10 µM.
Substance-P receptor, sequence (P25103 whole entry): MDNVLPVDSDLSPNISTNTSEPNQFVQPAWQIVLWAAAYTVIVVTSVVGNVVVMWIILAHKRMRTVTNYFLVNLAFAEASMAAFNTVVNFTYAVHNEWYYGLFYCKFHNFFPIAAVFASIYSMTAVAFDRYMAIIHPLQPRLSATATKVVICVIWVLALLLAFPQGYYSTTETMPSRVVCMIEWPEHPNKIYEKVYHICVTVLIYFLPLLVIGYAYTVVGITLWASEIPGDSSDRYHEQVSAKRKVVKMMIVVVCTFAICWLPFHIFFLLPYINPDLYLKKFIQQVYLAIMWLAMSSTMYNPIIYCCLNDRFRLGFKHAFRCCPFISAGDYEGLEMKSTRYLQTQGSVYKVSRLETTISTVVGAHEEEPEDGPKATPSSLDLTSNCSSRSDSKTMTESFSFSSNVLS
Test: not given
The format is cell membranes, CHO, Membrane. As to conditions: cho.
As to `CC(=O)CCCCn1c(=O)c2c(ncn2C)n(C)c1=O` [PENTOXIFYLLINE], the IC50 entry was “Not Active”.
For `O=C1CN=C(c2ccccc2)c2cc([N+](=O)[O-])ccc2N1` [NITRAZEPAM], the IC50 entry is “Not Active”.
The same measure, in the same setting: the value for `CCC1(c2ccccc2)C(=O)NCNC1=O` [PRIMIDONE] was “Not Active”.

Test system in the next assay: not listed separately
Briefly: DRUGMATRIX: Potassium Channel [KATP] radioligand binding (ligand: [3H] Glyburide). It counts as cell membranes, Membrane. As to conditions: hit-t15; Not Active = under 50% inhibition at 10 µM.
Turning to `CC(=O)CCCCn1c(=O)c2c(ncn2C)n(C)c1=O` [PENTOXIFYLLINE], the IC50 entry was “Not Active” and the Ki entry is on record as “Not Active”.
Turning to `O=C1CN=C(c2ccccc2)c2cc([N+](=O)[O-])ccc2N1` [NITRAZEPAM], the IC50 result is listed as “Not Active” and the Ki entry is “Not Active”.
Take `CCC1(c2ccccc2)C(=O)NCNC1=O` [PRIMIDONE]: the IC50 result is on record as “Not Active” and the Ki entry is on record as “Not Active”.

A further assay addresses T1, Substance-K receptor (Homo sapiens, UniProt P21452).
T1 sequence (P21452 whole entry): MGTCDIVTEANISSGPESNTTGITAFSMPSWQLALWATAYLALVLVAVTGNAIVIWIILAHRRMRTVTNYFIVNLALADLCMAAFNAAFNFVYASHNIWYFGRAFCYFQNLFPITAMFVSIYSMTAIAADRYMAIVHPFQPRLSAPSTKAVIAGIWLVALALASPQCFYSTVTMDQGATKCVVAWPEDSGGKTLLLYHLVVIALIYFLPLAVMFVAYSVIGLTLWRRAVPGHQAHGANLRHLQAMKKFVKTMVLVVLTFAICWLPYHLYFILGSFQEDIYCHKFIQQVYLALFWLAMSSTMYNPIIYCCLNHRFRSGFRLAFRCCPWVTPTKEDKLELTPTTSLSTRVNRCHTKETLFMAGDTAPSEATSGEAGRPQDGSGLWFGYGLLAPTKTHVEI
Test: not given
The format is cell membranes, CHO, Membrane. As to conditions: cho.
Consider `CC(=O)CCCCn1c(=O)c2c(ncn2C)n(C)c1=O` [PENTOXIFYLLINE], for which the IC50 result is given as “Not Active”.
`O=C1CN=C(c2ccccc2)c2cc([N+](=O)[O-])ccc2N1` [NITRAZEPAM]: the IC50 entry is reported as “Not Active”.
Take `CCC1(c2ccccc2)C(=O)NCNC1=O` [PRIMIDONE]: the IC50 result was “Not Active”.

A further assay deals with T2, Calcitonin receptor (Homo sapiens, UniProt P30988).
T2 sequence (P30988 whole entry): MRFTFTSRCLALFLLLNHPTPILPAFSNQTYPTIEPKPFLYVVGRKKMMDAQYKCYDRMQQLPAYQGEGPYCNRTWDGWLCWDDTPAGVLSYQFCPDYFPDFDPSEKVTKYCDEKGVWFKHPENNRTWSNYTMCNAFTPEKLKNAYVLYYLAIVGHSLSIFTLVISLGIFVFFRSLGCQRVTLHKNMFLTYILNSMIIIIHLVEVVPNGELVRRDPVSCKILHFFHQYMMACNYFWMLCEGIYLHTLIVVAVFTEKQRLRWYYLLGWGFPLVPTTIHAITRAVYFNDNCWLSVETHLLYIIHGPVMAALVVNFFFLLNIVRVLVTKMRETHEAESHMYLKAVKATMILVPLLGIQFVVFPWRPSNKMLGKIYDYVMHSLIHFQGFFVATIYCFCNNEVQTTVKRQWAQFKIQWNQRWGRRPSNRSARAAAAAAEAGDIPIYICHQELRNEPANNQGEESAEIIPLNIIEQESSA
Test: not given
It counts as cell membranes, Membrane. The settings on record: t47d.
As to `CC(=O)CCCCn1c(=O)c2c(ncn2C)n(C)c1=O` [PENTOXIFYLLINE], the IC50 entry is “Not Active”.
Turning to `O=C1CN=C(c2ccccc2)c2cc([N+](=O)[O-])ccc2N1` [NITRAZEPAM], the IC50 result is reported as “Not Active”.
For `CCC1(c2ccccc2)C(=O)NCNC1=O` [PRIMIDONE], the IC50 entry was “Not Active”.

The next assay concerns the target Adenosine receptor A2a (Homo sapiens, UniProt P29274). Briefly: DRUGMATRIX: Adenosine A2A radioligand binding (ligand: […]). It counts as cell membranes, HEK293, Membrane. The settings on record: hek293; Not Active = under 50% inhibition at 10 µM.
For the molecule `CC(=O)CCCCn1c(=O)c2c(ncn2C)n(C)c1=O` [PENTOXIFYLLINE], the IC50 result is recorded as “Not Active”.
With `O=C1CN=C(c2ccccc2)c2cc([N+](=O)[O-])ccc2N1` [NITRAZEPAM], the IC50 result is reported as “Not Active”.
On the same count and under the same terms, under `CCC1(c2ccccc2)C(=O)NCNC1=O` [PRIMIDONE] stands “Not Active”.

For a further assay, the target named is C-C chemokine receptor type 5 (Homo sapiens, UniProt P51681). Also: in other assays of this panel Not Active means under 50% inhibition at 10 µM.
C-C chemokine receptor type 5, sequence (P51681 whole entry): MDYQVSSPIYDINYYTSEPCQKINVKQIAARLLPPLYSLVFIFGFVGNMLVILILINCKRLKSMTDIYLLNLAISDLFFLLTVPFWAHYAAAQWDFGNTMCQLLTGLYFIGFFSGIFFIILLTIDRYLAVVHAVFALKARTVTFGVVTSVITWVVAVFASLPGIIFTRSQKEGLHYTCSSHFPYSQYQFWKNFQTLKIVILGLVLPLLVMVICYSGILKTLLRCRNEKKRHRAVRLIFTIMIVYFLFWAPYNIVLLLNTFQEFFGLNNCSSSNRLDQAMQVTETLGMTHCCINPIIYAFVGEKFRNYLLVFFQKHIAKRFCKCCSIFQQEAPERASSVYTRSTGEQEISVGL
Test: not given
It counts as cell membranes, Membrane. The settings on record: hek293.
On to `CC(=O)CCCCn1c(=O)c2c(ncn2C)n(C)c1=O` [PENTOXIFYLLINE], for which the IC50 entry is recorded as “Not Active”.
As to `O=C1CN=C(c2ccccc2)c2cc([N+](=O)[O-])ccc2N1` [NITRAZEPAM], the IC50 entry was “Not Active”.
With `CCC1(c2ccccc2)C(=O)NCNC1=O` [PRIMIDONE], the IC50 result is given as “Not Active”.

Test system in a further assay: not listed separately
In words: DRUGMATRIX: GABAA, Muscimol, Central radioligand binding (ligand: [3H] Muscimol). It counts as cell membranes, Rattus norvegicus, Wistar, Brain, Membrane. As to conditions: Not Active = under 50% inhibition at 10 µM.
In the case of `CC(=O)CCCCn1c(=O)c2c(ncn2C)n(C)c1=O` [PENTOXIFYLLINE], the IC50 result is given as “Not Active” and the Ki entry is reported as “Not Active”.
In the case of `O=C1CN=C(c2ccccc2)c2cc([N+](=O)[O-])ccc2N1` [NITRAZEPAM], the IC50 entry is on record as “Not Active” and the Ki result is listed as “Not Active”.
Consider `CCC1(c2ccccc2)C(=O)NCNC1=O` [PRIMIDONE], for which the IC50 entry is on record as “Not Active” and the Ki entry is “Not Active”.

For a further assay, the target named is T3, Angiotensin-converting enzyme (Oryctolagus cuniculus, UniProt P12822).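 Also: enzymatic inhibition of angiotensin-converting enzyme measured with FAPGG as the substrate; in other assays of this panel Not Active means under 50% inhibition at 10 µM.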
T3 sequence (P12822 whole entry): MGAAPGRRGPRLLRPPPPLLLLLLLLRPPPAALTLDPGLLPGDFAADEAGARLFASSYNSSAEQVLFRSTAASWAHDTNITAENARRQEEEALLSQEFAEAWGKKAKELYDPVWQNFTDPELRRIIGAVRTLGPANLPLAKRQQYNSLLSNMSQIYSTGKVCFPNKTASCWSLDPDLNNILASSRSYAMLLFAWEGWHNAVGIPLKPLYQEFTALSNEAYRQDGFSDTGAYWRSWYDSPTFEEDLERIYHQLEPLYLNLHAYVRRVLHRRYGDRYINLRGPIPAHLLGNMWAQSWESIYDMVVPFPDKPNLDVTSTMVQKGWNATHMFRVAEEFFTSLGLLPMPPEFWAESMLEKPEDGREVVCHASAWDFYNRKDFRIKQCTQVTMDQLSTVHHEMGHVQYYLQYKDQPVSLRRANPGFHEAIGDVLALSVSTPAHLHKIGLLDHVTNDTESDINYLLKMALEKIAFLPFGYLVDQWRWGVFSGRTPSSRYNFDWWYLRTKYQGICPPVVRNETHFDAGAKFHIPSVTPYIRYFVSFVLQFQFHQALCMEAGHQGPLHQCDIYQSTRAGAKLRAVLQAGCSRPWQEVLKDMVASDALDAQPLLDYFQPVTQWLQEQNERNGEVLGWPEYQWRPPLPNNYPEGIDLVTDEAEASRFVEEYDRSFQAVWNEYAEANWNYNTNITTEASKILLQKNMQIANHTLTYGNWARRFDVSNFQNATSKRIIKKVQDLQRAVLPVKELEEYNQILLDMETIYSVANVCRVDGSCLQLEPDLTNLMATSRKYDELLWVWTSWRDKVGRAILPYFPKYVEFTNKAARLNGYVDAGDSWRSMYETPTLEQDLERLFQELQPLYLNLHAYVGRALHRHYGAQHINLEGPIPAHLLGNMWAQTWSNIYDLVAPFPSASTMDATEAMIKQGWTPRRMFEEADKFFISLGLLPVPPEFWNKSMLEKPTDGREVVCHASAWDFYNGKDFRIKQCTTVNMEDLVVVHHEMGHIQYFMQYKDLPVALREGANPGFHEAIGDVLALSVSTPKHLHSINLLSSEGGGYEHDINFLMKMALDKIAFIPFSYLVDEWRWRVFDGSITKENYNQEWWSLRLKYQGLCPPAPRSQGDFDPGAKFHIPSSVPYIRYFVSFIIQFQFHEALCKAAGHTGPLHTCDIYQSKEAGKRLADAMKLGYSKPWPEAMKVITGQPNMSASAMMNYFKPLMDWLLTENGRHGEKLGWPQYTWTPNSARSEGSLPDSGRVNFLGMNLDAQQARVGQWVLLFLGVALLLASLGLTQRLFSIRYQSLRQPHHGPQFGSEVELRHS
Briefly: biochemical. It counts as tissue-based, Lung.
Conditions: not given
Consider `CC(=O)CCCCn1c(=O)c2c(ncn2C)n(C)c1=O` [PENTOXIFYLLINE], for which the IC50 result is reported as “Not Active”.
Turning to `O=C1CN=C(c2ccccc2)c2cc([N+](=O)[O-])ccc2N1` [NITRAZEPAM], the IC50 entry is given as “Not Active”.
On to `CCC1(c2ccccc2)C(=O)NCNC1=O` [PRIMIDONE], for which the IC50 entry is “Not Active”.

Another assay has as its target Glycine receptor (Rattus norvegicus, UniProt P22771+P24524+P07727+P20781). Also: in other assays of this panel Not Active means under 50% inhibition at 10 µM.
Test: not given
It counts as cell membranes, Wistar, Spinal cord, Membrane.
Conditions: not given
`CC(=O)CCCCn1c(=O)c2c(ncn2C)n(C)c1=O` [PENTOXIFYLLINE]: the IC50 result is “Not Active”.
For `O=C1CN=C(c2ccccc2)c2cc([N+](=O)[O-])ccc2N1` [NITRAZEPAM], the IC50 result is “Not Active”.
On the same count and under the same terms, the value for `CCC1(c2ccccc2)C(=O)NCNC1=O` [PRIMIDONE] was “Not Active”.

Test system in the next assay: not listed separately
In words: DRUGMATRIX: Nicotinic Acetylcholine radioligand binding (ligand: [125I] Epibatidine). The settings on record: imr-32; Not Active = under 50% inhibition at 10 µM. It counts as cell membranes, Membrane.
On to `CC(=O)CCCCn1c(=O)c2c(ncn2C)n(C)c1=O` [PENTOXIFYLLINE], for which the IC50 result is reported as “Not Active” and the Ki result is given as “Not Active”.
For `O=C1CN=C(c2ccccc2)c2cc([N+](=O)[O-])ccc2N1` [NITRAZEPAM], the IC50 result was “Not Active” and the Ki entry is listed as “Not Active”.
For the molecule `CCC1(c2ccccc2)C(=O)NCNC1=O` [PRIMIDONE], the IC50 result is listed as “Not Active” and the Ki result is listed as “Not Active”.
